Assay results as given in US20100234390A1, “NOVEL COMPOUND AND THEIR USE” (priority 2007, published 2010).

Assays:
Assay in all cases: Agar dilution MIC
S. aureus ATCC 29213 = format: cell-based, Staphylococcus aureus; settings: Staphylococcus aureus, ATCC29213, 35° C., 16-20 hours, read-out: Antimicrobial Screening (MIC)
Procedure, shortened: (§1)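 Steps: dissolve compound in dimethyl sulfoxide; make two-fold serial dilutions in that solvent; incorporate each into molten MHA just before it sets; inoculate with a 1.5×10^7 CFU/mL saline suspension; incubate 16-20 hours at 35° C without added CO2.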

S. aureus ATCC 43300 = format: cell-based, Staphylococcus aureus; settings: Staphylococcus aureus, ATCC43300, 35° C., 16-20 hours, read-out: Antimicrobial Screening (MIC)
Procedure, shortened: as §1

S. aureus MRO 00013 = format: cell-based, Staphylococcus aureus; settings: Staphylococcus aureus, MRO00013, 35° C., 16-20 hours, read-out: Antimicrobial Screening (MIC)
Procedure, shortened: as §1

S. aureus MRO 0001 = format: cell-based, Staphylococcus aureus; settings: Staphylococcus aureus, MRO0001, 35° C., 16-20 hours, read-out: Antimicrobial Screening (MIC)
Procedure, shortened: as §1

S. aureus MRO 00030 = format: cell-based, Staphylococcus aureus; settings: Staphylococcus aureus, MRO00030, 35° C., 16-20 hours, read-out: Antimicrobial Screening (MIC)
Procedure, shortened: as §1

S. aureus MRO 0003 = format: cell-based, Staphylococcus aureus; settings: Staphylococcus aureus, MRO0003, 35° C., 16-20 hours, read-out: Antimicrobial Screening (MIC)
Procedure, shortened: as §1

S. aureus MRO 00048 = format: cell-based, Staphylococcus aureus; settings: Staphylococcus aureus, MRO00048, 35° C., 16-20 hours, read-out: Antimicrobial Screening (MIC)
Procedure, shortened: as §1

S. aureus MRO 00055 = format: cell-based, Staphylococcus aureus; settings: Staphylococcus aureus, MRO00055, 35° C., 16-20 hours, read-out: Antimicrobial Screening (MIC)
Procedure, shortened: as §1

S. aureus MRO 00059 = format: cell-based, Staphylococcus aureus; settings: Staphylococcus aureus, MRO00059, 35° C., 16-20 hours, read-out: Antimicrobial Screening (MIC)
Procedure, shortened: as §1

S. aureus MRO 002053 = format: cell-based, Staphylococcus aureus; settings: Staphylococcus aureus, MRO002053, 35° C., 16-20 hours, read-out: Antimicrobial Screening (MIC)
Procedure, shortened: as §1

[1] = system: S. epidermidis MRO 002046; format: cell-based; settings: Staphylococcus epidermidis, MRO002046, 35° C., 16-20 hours, read-out: Antimicrobial Screening (MIC)
Procedure, shortened: as §1

S. epidermidis MRO 02002 = format: cell-based; settings: Staphylococcus epidermidis, MRO02002, 35° C., 16-20 hours, read-out: Antimicrobial Screening (MIC)
Procedure, shortened: as §1

S. epidermidis MRO 02045 = format: cell-based; settings: Staphylococcus epidermidis, MRO02045, 35° C., 16-20 hours, read-out: Antimicrobial Screening (MIC)
Procedure, shortened: as §1

S. epidermidis MRO 02095 = format: cell-based; settings: Staphylococcus epidermidis, MRO02095, 35° C., 16-20 hours, read-out: Antimicrobial Screening (MIC)
Procedure, shortened: as §1

[2] = system: S. haemolyticus MRO 02064; format: cell-based; settings: Staphylococcus haemolyticus, MRO02064, 35° C., 16-20 hours, read-out: Antimicrobial Screening (MIC)
Procedure, shortened: as §1

[3] = system: S. saprophyticus MRO 02003; format: cell-based; settings: Staphylococcus saprophyticus, MRO02003, 35° C., 16-20 hours, read-out: Antimicrobial Screening (MIC)
Procedure, shortened: as §1

E. faecalis ATCC 29212 = format: cell-based, Enterococcus faecalis; settings: Enterococcus faecalis, ATCC29212, 35° C., 16-20 hours, read-out: Antimicrobial Screening (MIC)
Procedure, shortened: as §1

E. faecalis ATCC 51299 = format: cell-based, Enterococcus faecalis; settings: Enterococcus faecalis, ATCC51299, 35° C., 16-20 hours, read-out: Antimicrobial Screening (MIC)
Procedure, shortened: as §1

E. faecalis MRO 04035 = format: cell-based, Enterococcus faecalis; settings: Enterococcus faecalis, MRO04035, 35° C., 16-20 hours, read-out: Antimicrobial Screening (MIC)
Procedure, shortened: as §1

E. faecalis MRO 04050 = format: cell-based, Enterococcus faecalis; settings: Enterococcus faecalis, MRO04050, 35° C., 16-20 hours, read-out: Antimicrobial Screening (MIC)
Procedure, shortened: as §1

E. faecalis MRO 04205 = format: cell-based, Enterococcus faecalis; settings: Enterococcus faecalis, MRO04205, 35° C., 16-20 hours, read-out: Antimicrobial Screening (MIC)
Procedure, shortened: as §1

E. faecium ATCC 700221 = format: cell-based, Enterococcus faecium; settings: Enterococcus faecium, ATCC700221, 35° C., 16-20 hours, read-out: Antimicrobial Screening (MIC)
Procedure, shortened: as §1

E. faecium MRO 04037 = format: cell-based, Enterococcus faecium; settings: Enterococcus faecium, MRO04037, 35° C., 16-20 hours, read-out: Antimicrobial Screening (MIC)
Procedure, shortened: as §1

E. faecium MRO 04038 = format: cell-based, Enterococcus faecium; settings: Enterococcus faecium, MRO04038, 35° C., 16-20 hours, read-out: Antimicrobial Screening (MIC)
Procedure, shortened: as §1

E. faecium MRO 04198 = format: cell-based, Enterococcus faecium; settings: Enterococcus faecium, MRO04198, 35° C., 16-20 hours, read-out: Antimicrobial Screening (MIC)
Procedure, shortened: as §1

[4] = system: M. catarrhalis ATCC 43617; format: cell-based, Moraxella catarrhalis; settings: Moraxella catarrhalis, ATCC43617, 35° C., 16-20 hours, read-out: Antimicrobial Screening (MIC)
Procedure, shortened: as §1

[5] = system: M. catarrhalis ATCC 43627; format: cell-based, Moraxella catarrhalis; settings: Moraxella catarrhalis, ATCC43627, 35° C., 16-20 hours, read-out: Antimicrobial Screening (MIC)
Procedure, shortened: as §1

[6] = system: M. catarrhalis ATCC 43628; format: cell-based, Moraxella catarrhalis; settings: Moraxella catarrhalis, ATCC43628, 35° C., 16-20 hours, read-out: Antimicrobial Screening (MIC)
Procedure, shortened: as §1

Measured: MIC

COC(=S)NC[C@H]1CN(c2ccc(N3CCN(C(=O)COCc4ccccc4)CC3)c(F)c2)C(=O)O1 [Example 45, (S)—O-Methyl (3-(4-(4-(2-(benzyloxy)acetyl)piperazin-1-yl)-3-fluorophenyl)-2-oxooxazolidin-5-yl)methylcarbamothioate]
2 µg/mL: [5]
1 µg/mL: S. aureus ATCC 29213 | S. aureus MRO 00013 | S. aureus MRO 00030 | S. aureus MRO 0003 | S. aureus MRO 00055 | S. aureus MRO 002053 | [1] | S. epidermidis MRO 02002 | S. epidermidis MRO 02045 | S. epidermidis MRO 02095 | [3] | [6]
0.5 µg/mL: all other assays above
